“Also recorded” adds a separate entry of the source.
How the values were obtained:
Format in all cases: in vivo
Lepr^db/db female mice [1] = experiment: LV end diastolic pressure measurement by pressure catheter in Lepr^db/db mice; conditions: 2 month old Lepr^db/db female mice
Description: Lepr^db mice (BKS.Cg-Dock7m/+ Lepr^db/+J) were obtained from Charles River laboratories and bred together to obtain Lepr^db/db and control Lepr^db/+ mice. To prevent mast cell degranulation, mice were treated with 50 mg/kg/day cromolyn sodium (Abcam) via intra-peritoneal injections for 28 days. Untreated mice received 0.9% NaCl daily intra-peritoneal injections. […] LV diastolic pressure measurement was assessed using pressure—volume conductance catheter technique. Briefly, mice will be anesthetized with Isoflurane. A Scisense pressure catheter (Transonic) will be inserted into the LV through the common carotid artery. Pressure will be recorded using […] LabChart software. End diastolic pressure, dP/dt minimum and maximum, Tau and heart rate were automatically calculated by a curve fit through end-systolic and end-diastolic points on the pressure plot.

Lepr^db/db female mice [2] = experiment: Echocardiography (ejection fraction, LV wall thickness) in Lepr^db/db mice; conditions: data not shown
Excerpt: Lepr^db mice (BKS.Cg-Dock7m/+ Lepr^db/+J) were obtained from Charles River laboratories and bred together to obtain Lepr^db/db and control Lepr^db/+ mice.
[…] Untreated mice received 0.9% NaCl daily intra-peritoneal injections.
Left-ventricular ejection fraction and LV dimension will be measured on a high-resolution echocardiographic system equipped with a 30-MHz mechanical transducer (VEVO 2100, VisualSonics Inc.) as previously described 13,14. Mice were anchored to a warming platform in a supine position, limbs were taped to the echocardiograph electrodes, and chests were shaved and cleaned with a chemical hair remover to minimize ultrasound attenuation. UNI′GEL ECG (Asept Inmed), from which all air bubbles had been expelled, was applied to the thorax to optimize the visibility of the cardiac chambers. Ejection fractions were evaluated by planimetry as recommended (Schiller et al. 1989). Two-dimensional, parasternal long-axis and short-axis views were acquired, and the endocardial area of each frame was calculated by tracing the endocardial limits in the long-axis view, then the minimal and maximal areas were used to determine the left-ventricular end-systolic (ESV) and end-diastolic (EDV) volumes, respectively. The system software uses a formula based on a cylindrical-hemiellipsoid model (volume=8·area^2/3π/length) 15. The left-ventricular ejection fraction was derived from the following formula: (EDV−ESV)/EDV*100. The cardiac wall thickness (Left ventricular posterior wall (LVPW), Inter-ventricular septum (IVS) and left ventricular internal diameter (LVID) were calculated by tracing wall limits in both the long and short axis views.

Lepr^db/db female mice [3] = experiment: Immuno-histological assessment of the heart (capillaries, albumin, CD45+ leucocytes, mast cells, cardiomyocyte size) in Lepr^db/db mice
Description: Lepr^db mice (BKS.Cg-Dock7m/+ Lepr^db/+J) were obtained from Charles River laboratories and bred together to obtain Lepr^db/db and control Lepr^db/+ mice. To prevent mast cell degranulation, mice were treated with 50 mg/kg/day cromolyn sodium (Abcam) via intra-peritoneal injections for 28 days. Untreated mice received 0.9% NaCl daily intra-peritoneal injections. […] Prior to staining, heart were stopped in diastole using KCl, perfused and then fixed in 10% formalin for 4 hours, paraffin embedded and cut into 7 μm thick sections. Alternatively, heart were fresh frozen in OCT, then cut into 7 μm thick sections. ECs were identified using rat anti-CD31 antibodies (Histonova, cat #DIA-310). Albumin was stained using sheep anti-albumin antibodies (Abcam, Cat #ab8940). Pan-leucocytes were identified using rat anti-mouse CD45 antibodies (BD Pharmingen Inc, Cat #550539). For immunofluorescence analyzes, primary antibodies were resolved with Alexa Fluor®-conjugated secondary polyclonal antibodies (Invitrogen, Cat #[NT]-10037) and nuclei were counterstained with DAPI (1/5000). Negative controls using secondary antibodies only were done to check for antibody specificity. Capillary density (CD31+ vessels) was quantified in 4 pictures taken under ×260 magnification in areas where cardiomyocytes were oriented transversally. To assess the mean capillary diameter, the diameter of 10 capillary randomly chosen in each picture was measured via Image J. Inflammatory cell density (CD45+) was quantified in 8 pictures randomly taken under ×260 magnification. All pictures and quantifications (done using ImageJ/Fiji v2.0.0-rc-59 software (National Institute of Health, USA)) were performed by a blinded investigator. More precisely, all samples were assigned a random number prior to animal sacrifice, data collection and analysis. At the end of the experiment, the genotype/treatment for each animal was unveiled to allow data comparison and experimental conclusion.

Lepr^db/db female mice [4] = experiment: Heart weight in Lepr^db/db mice; conditions: 50 mg/kg/day cromolyn sodium for 28 days; data not shown
Description: To prevent mast cell degranulation, mice were treated with 50 mg/kg/day cromolyn sodium (Abcam) via intra-peritoneal injections for 28 days. Untreated mice received 0.9% NaCl daily intra-peritoneal injections.

[5] = 50 mg/kg/day cromolyn sodium for 28 days

| SMILES | End diastolic pressure (EDP) (Lepr^db/db female mice [1]; 4 mg/kg/day cetirizine orally (drinking water) for 28 days vs vehicle, FIG. 1B) | Ejection fraction (Lepr^db/db female mice [2]; 4 mg/kg/day cetirizine orally for 28 days) | End diastolic pressure (EDP) (Lepr^db/db female mice [1]; 50 mg/kg/day cromolyn sodium intra-peritoneal for 28 days vs vehicle, FIG. 1A) | End diastolic pressure (EDP) (Lepr^db/db female mice [1]; 50 mg/kg/day cromolyn sodium intra-peritoneal for 28 days vs vehicle, FIG. 1A, listed as Cromolyn Sodium) | End diastolic pressure (EDP) (Lepr^db/db female mice [1]; 50 mg/kg/day cromolyn sodium intra-peritoneal for 28 days vs vehicle, FIG. 1A, listed as Cromolyn sodium) | Ejection fraction (Lepr^db/db female mice [2]; [5]) | LV posterior wall thickness (Lepr^db/db female mice [2]; [5]) | Cardiac microvessel density (CD31+ vessels/mm^2) (Lepr^db/db female mice [3]; 50 mg/kg/day cromolyn sodium for 28 days vs vehicle, FIG. 2A) | Mean cardiac capillary diameter (Lepr^db/db female mice [3]; 50 mg/kg/day cromolyn sodium for 28 days vs vehicle, FIG. 2B) | Capillary permeability (albumin extravasation, albumin+ surface area) (Lepr^db/db female mice [3]; 50 mg/kg/day cromolyn sodium for 28 days vs vehicle, FIG. 2C) | CD45+ leucocyte recruitment (CD45+ cells/mm^2) (Lepr^db/db female mice [3]; 50 mg/kg/day cromolyn sodium for 28 days vs vehicle, FIG. 2D) | Percentage of degranulating mast cells in the heart (Lepr^db/db female mice [3]; 50 mg/kg/day cromolyn sodium for 28 days vs vehicle, data not shown) | Mean cardiomyocyte size (Lepr^db/db female mice [3]; 50 mg/kg/day cromolyn sodium for 28 days, data not shown) | Heart weight (Lepr^db/db female mice [4]) |
| --- | --- | --- | --- | --- | --- | --- | --- | --- | --- | --- | --- | --- | --- | --- |
| O=C(O)COCCN1CCN(C(c2ccccc2)c2ccc(Cl)cc2)CC1 (centres unmarked) [cetirizine] | significantly decreased | not modulated | – | – | – | – | – | – | – | – | – | – | – | – |
| O=C(O)c1cc(=O)c2c(OCC(O)COc3cccc4oc(C(=O)O)cc(=O)c34)cccc2o1 [cromolyn sodium] | – | – | significantly decreased; also recorded: prevents increased EDP | prevents the occurrence of diastolic dysfunction | significantly reduced | not modulated | did neither modify | did not modify | did reduce | decreased | decreases; also recorded: significantly decreased | did decrease | did neither modify | did neither modify |

— US20220387408A1, “USE OF MAST CELL STABILIZER FOR THE TREATMENT OF HEART FAILURE WITH PRESERVED EJECTION FRACTION” (INSERM (INSTITUT NATIONAL DE LA SANTÉ ET DE LA RECHERCHE …, priority 2019, published 2022)
